Measurements reported in US20260168988A1, “GENETICALLY ENCODED REPORTER EXPRESSION SYSTEMS AND METHODS OF MAKING AND USING SAME” (Duke University, priority 2021, published 2026).
Entries after “also recorded” stand apart in the source; their conditions may differ.

Experiments:
Assay type in all cases: cell-based
METTL3 [1] = experiment: m6A sensor system in METTL3 degron cells treated with auxin; conditions: METTL3 degron HEK293T cells, auxin 48 hours, compared to DMSO-treated cells
Description: To confirm that the m^6A sensor is METTL3-dependent, the m^6A sensor system was expressed in HEK293T cells which contain an auxin-inducible degradation tag at the endogenous METTL3 locus (METTL3 degron cells). Cells were treated with auxin for 48 hours and then transfected with the m^6A sensor system. […] Conversely, overexpression of METTL3 causes increased GFP fluorescence, a higher GFP:GFP-DHFR ratio, and increased C-to-U editing of the sensor sequence (FIGS. 5A-5C).

NMD = experiment: m6A reporter mRNA levels after blocking nonsense-mediated decay (RT-qPCR); conditions: HEK293T cells expressing the m6A sensor system, CHX for 24 h
Description: HEK293T cells expressing the m6A sensor system were treated with CHX for 24 h to inhibit NMD, followed by RT-qPCR of the m^6A reporter mRNA.
The possibility that the m^6A reporter mRNA could be susceptible to nonsense-mediated decay (NMD), since editing of the m6A reporter mRNA produces premature stop codons, was investigated. However, this is unlikely since most NMD requires the presence of the exon junction complex (EJC), and the m^6A reporter transcript lacks introns.

APO1-YTH = experiment: Inducible APO1-YTH expression in HEK293T stable m6A reporter cell lines; conditions: time courses of dox induction
Excerpt: HEK293T stable cells were generated which express both the m^6A reporter and APO1-YTH. The m^6A reporter was constitutively expressed from the CMV reporter, while APO1-YTH was inducibly expressed after treatment of cells with doxycycline (dox).
Cyclophilin A (CycloA) is shown as a loading control.
Another embodiment of the present disclosure provides stable cell lines that express the m^6A reporter system as provided herein. To do this, stable cell lines expressing both the m^6A reporter and APO1-YTH were generated by transfecting HEK293T cells with a dual-promoter plasmid encoding both components of the reporter system. This plasmid drives m^6A reporter expression from the CMV promoter and APO1-YTH expression using an inducible […] promoter. However, any dual-promoter system could also be used and different promoters (inducible and constitutive) could also be used with this m^6A reporter system. The m^6A reporter system provided herein may also be applied in other mammalian and non-mammalian cell types as well.
Following selection of stable cells with puromycin resistance which was conferred by genomic integration of the plasmid, it was next sought to confirm that the reporter system works in the context of stable integration of the m^6A reporter and APO1-YTH components. […]

METTL3 [2] = target: T1, METTL3 (Homo sapiens, UniProt Q86U44); experiment: m6A sensor system in HEK293T cells treated with METTL3 inhibitor; conditions: HEK293T cells expressing the m6A sensor system, after treatment
T1 construct: endogenous in cells; host or cells: HEK293T
T1 sequence (Q86U44 2-580 limits assumed): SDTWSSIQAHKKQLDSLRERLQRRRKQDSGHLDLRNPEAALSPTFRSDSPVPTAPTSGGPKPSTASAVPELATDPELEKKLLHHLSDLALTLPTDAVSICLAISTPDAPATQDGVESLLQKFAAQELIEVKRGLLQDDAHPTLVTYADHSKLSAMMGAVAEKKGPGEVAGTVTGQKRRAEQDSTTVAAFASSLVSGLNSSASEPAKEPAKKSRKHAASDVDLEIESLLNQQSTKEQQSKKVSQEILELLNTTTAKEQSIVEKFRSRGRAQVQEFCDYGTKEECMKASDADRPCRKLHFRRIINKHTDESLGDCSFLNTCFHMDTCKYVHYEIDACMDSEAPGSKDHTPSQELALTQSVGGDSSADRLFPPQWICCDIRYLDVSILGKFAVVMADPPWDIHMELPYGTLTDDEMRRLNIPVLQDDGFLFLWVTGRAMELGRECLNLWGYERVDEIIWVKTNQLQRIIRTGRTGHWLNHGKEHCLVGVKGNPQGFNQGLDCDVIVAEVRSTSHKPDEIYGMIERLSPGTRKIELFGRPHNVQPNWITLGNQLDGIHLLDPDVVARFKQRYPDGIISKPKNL
T1 sequence (Q9HCE5 whole entry partner): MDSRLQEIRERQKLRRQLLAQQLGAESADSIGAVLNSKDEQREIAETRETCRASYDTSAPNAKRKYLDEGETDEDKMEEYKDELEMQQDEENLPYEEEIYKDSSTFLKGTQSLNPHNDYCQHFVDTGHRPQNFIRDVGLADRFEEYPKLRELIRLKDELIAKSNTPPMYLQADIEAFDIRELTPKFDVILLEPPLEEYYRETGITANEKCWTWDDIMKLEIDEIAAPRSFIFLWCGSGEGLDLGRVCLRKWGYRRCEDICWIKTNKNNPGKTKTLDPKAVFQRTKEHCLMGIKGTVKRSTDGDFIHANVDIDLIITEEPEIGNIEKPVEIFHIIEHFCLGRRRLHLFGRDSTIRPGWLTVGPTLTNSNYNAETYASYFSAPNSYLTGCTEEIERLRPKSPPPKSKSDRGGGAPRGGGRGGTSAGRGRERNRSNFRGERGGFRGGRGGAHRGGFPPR

In the case of O=C(O)Cc1c[nH]c2ccccc12 [auxin], the “C-to-U editing of the m6A sensor sequence (RT-PCR/Sanger sequencing)” value (“C-to-U editing … (RT-PCR/Sanger sequencing)” below) (METTL3 [1]) was “decreased C-to-U editing”, the “GFP:GFP-DHFR ratio (western blot)” value (METTL3 [1]) was “reduced GFP:GFP-DHFR ratio” and the “C-to-U editing … (RT-PCR/Sanger sequencing)” value (METTL3 [1]; listed as Auxin) was “reduced C-to-U editing”. For the same compound, the “GFP fluorescence of m6A sensor” value (METTL3 [1]; then transfected, assessed 24 hours later) was “greatly diminished; also recorded: reduced m^6A sensor fluorescence”.

For C[C@@H]1C[C@@H]([C@H](O)CC2CC(=O)NC(=O)C2)C(=O)[C@@H](C)C1 [cycloheximide], the “levels of the m6A reporter mRNA (RT-qPCR)” value (NMD) was “did not cause changes”.

In the case of C[C@H]1c2cccc(O)c2C(=O)C2=C(O)[C@]3(O)C(=O)C(C(N)=O)=C(O)[C@@H](N(C)C)[C@@H]3[C@@H](O)[C@@H]21 [doxycycline], the “duration of dox treatment sufficient for APO1-YTH induction and EGFP fluorescence” value (APO1-YTH) was 24 h.

For STM2457, the “C-to-U editing … (RT-PCR/Sanger sequencing)” value (METTL3 [2]) was “lower levels of C-to-U editing; also recorded: reduced C-to-U editing”, the “GFP fluorescence of m6A sensor system” value (METTL3 [2]) was “reduces GFP fluorescence” and the “GFP protein (Western blot)” value (METTL3 [2]) was “reduced GFP protein; also recorded: reduction of GFP expression”.
